From US5114961A, “2,5-diaryl tetrahydrofurans and analogs thereof as PAF antagonists” (Merck & Co., Inc., priority 1990, dated 1992)
Values joined by “and” are separate entries in the source; they are usually repeats but may differ in a detail not shown here. Identical values can stand only once.

Target: T1, PAF specific receptor binding site (human platelet membranes) (Homo sapiens, UniProt P25105)
T1 construct: platelet membranes at a drug concentration of 3 nM; from tissue; host or cells: human platelet plasma membranes
T1 sequence (P25105 whole entry): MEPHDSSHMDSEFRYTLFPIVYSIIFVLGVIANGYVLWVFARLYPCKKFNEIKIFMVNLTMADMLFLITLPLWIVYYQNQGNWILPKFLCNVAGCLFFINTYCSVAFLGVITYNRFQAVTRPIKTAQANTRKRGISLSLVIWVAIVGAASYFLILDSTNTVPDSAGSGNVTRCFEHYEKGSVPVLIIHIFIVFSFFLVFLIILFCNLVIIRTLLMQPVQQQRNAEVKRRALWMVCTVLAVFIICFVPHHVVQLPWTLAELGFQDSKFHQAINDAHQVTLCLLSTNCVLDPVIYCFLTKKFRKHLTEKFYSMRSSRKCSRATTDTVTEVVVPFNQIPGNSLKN
Experiment: Inhibition of [3H]N-methylcarbamoyl-PAF binding to human platelet membranes
Settings: drug concentration of 3 nM, trans configuration
Experimental: The ability of a compound of formula (I) to inhibit the PAF binding to its specific receptor binding site on rabbit or human platelet or PMN plasma membranes was measured by a recently developed assay.
The inhibition of ^3 [H]-PAF or ^3 [H]-N-methyl carbamoyl-TAF binding to the human or rabbit platelet or PMN plasma membrane by a PAF antagonist of formula (I) was determined by a method employing isotopic labeling and filtration techniques. Generally, a series of Tris-buffered solutions of the selected antagonist at predetermined concentrations were prepared. Each of these solutions contains 1 pmole of ^3 H-PAF, a known amount of the test antagonist, and a sufficient amount of the pH 7.5 Tris-buffer solution (10mM Tris, 0.25% bovine serum albumin, and 150 mM NaCl per ml water) to make the final volume of 1 ml. After adding into a set of test tubes each with 100 μg of the platelet plasma membrane suspension (S. B. Hwang, et. al., Biochemistry, Vol. 22 pp. 4756-4763, 1983) and one of the Tris-buffer solutions described above, the resulting mixture in each test tube was incubated at 0° C. for about one hours or until the reaction was complete. Two control samples, one of which (C1) contains all the ingredients described above except the antagonist and the other (C2) contains C1 plus a 100-fold excess of unlabeled PAF, were also prepared and incubated simultaneously with the test samples. After the incubation was completed, the contents of each test tube were filtered under vacuo through a Whatman GF/C fiberglass filter and the residue washed rapidly several times with a total of 20 ml cold (0°-5° C.) Tris-buffer solution. Each washed residue was then suspended in 10 ml scintillation solution (Aquasol 2, New England Nuclear, Conn.) and the radioactivity was counted in a Packard Tri-Carb 460CD Liquid Scintillation System. Defining the counts from a test sample as "Total binding with antagonist"; the counts from the control sample C1, as "Total binding C1 "; and the counts from the control sample C2 as "non-specific binding C2 ", the percent inhibition of each test antagonist can be determined by the following equations: [formula]

inhibition at 0.003 µM | % Inhibition of the binding of [3H]N-methylcarbamoyl-PAF to human platelet membranes (0.003 µM) | Structure (SMILES)
34% | – | CCCOc1c(OCCN2CCCCC2)cc([C@H]2CC[C@H](c3cc(OC)c(OC)c(OC)c3)O2)cc1S(=O)(=O)CC(C)=O (relative stereo) [trans-2-[3-(2-Oxopropylsulfonyl)-4-n-propoxy-5-{2-(1-piperidinyl)-ethoxy}phenyl]-5-(3,4,5-trimethoxyphenyl)tetrahydrofuran]
29% | – | CCCOc1c(OCCN2CCCC2)cc([C@@H]2CC[C@@H](c3cc(OC)c(OC)c(OC)c3)O2)cc1S(=O)(=O)CC(C)=O (relative stereo) [trans-2-[3-(2-Oxopropylsulfonyl)-4-n-propoxy-5-{2-(1-pyrrolidino)-ethoxy}phenyl]-5-(3,4,5-trimethoxyphenyl)tetrahydrofuran]
55% | – | CCCOc1c(OCCSc2ncc[nH]2)cc([C@H]2CC[C@H](c3cc(OC)c(OC)c(OC)c3)O2)cc1S(=O)(=O)CC(C)=O (relative stereo) [trans-2-[3-(2-Oxopropylsulfonyl)-4-n-propoxy-5-{2-(2-imidazolylthio)ethoxy}phenyl]-5-(3,4,5-trimethoxyphenyl)tetrahydrofuran]
48% | – | CCCOc1c(OCCCN2CCCC2)cc([C@@H]2CC[C@@H](c3cc(OC)c(OC)c(OC)c3)O2)cc1S(=O)(=O)CC(C)=O (relative stereo) [trans-2-[3-(2-Oxopropylsulfonyl)-4-n-propoxy-5-{3-(1-pyrrolidino)-n-propoxy}phenyl]-5-(3,4,5-trimethoxyphenyl)tetrahydrofuran]
69% | – | CCCOc1c(OCCCSc2nc[nH]n2)cc([C@@H]2CC[C@@H](c3cc(OC)c(OC)c(OC)c3)O2)cc1S(=O)(=O)CC(C)=O (relative stereo) [trans-2-[3-(2-Oxopropylsulfonyl)-4-n-propoxy-5-{3-(1H-1,2,4-triazolyl-3-thio)n-propoxy}phenyl]-5-(3,4,5-trimethoxyphenyl)tetrahydrofuran]
45% | – | CCCOc1c(OCCCSc2ncc[nH]2)cc([C@H]2CC[C@H](c3cc(OC)c(OC)c(OC)c3)O2)cc1S(=O)(=O)CC(C)=O (relative stereo) [trans-2-[3-(2-Oxopropylsulfonyl)-4-n-propoxy-5-{3-(2-imidazolylthio)propoxy}phenyl]-5-(3,4,5-trimethoxyphenyl)tetrahydrofuran]
18% | – | CCCOc1c(OCCCN2CCOCC2)cc([C@@H]2CC[C@@H](c3cc(OC)c(OC)c(OC)c3)O2)cc1S(=O)(=O)CC(C)O (relative stereo) [trans-2-[3-(2-hydroxypropyl-sulfonyl)-4-propoxy-5-{3-(1-morpholino)-n-propoxy}phenyl]-5-(3,4,5-trimethoxyphenyl)tetrahydrofuran]
31% | – | CCCOc1c(OCCCN2CCOCC2)cc([C@@H]2CC[C@@H](c3cc(OC)c(OC)c(OC)c3)O2)cc1S(=O)(=O)CC(C)=O (relative stereo) [trans-2-[3-(2-oxopropylsulfonyl)-4-n-propoxy-5-{3-(1-morpholino)-n-propoxy}phenyl]-5-(3,4,5-trimethoxyphenyl)tetrahydrofuran]
25% | – | CCCOc1c(OCCCN2CCOCC2)cc([C@@H]2CC[C@@H](c3cc(OC)c(OC)c(OC)c3)O2)cc1S(=O)(=O)CCC(C)O (relative stereo) [trans-2-[3-(3-Hydroxybutyl)sulfonyl-4-n-propoxy-5-(3-{1-morpholino}-n-propoxy)phenyl]-5-(3,4,5-trimethoxyphenyl)tetrahydrofuran]
– | 60% and 100% | CCCS(=O)(=O)c1cc([C@H]2CC[C@H](c3cc(OC)c(OC)c(OC)c3)O2)cc(OC)c1OCCSc1ccc(O)cc1 (relative stereo) [trans-2-[3-Propylsulfonyl-4-{2-(4-hydroxyphenylthio)-ethoxy}-5-methoxyphenyl]-5-(3,4,5-trimethoxyphenyl) tetrahydrofuran]
55% | – | CCCS(=O)(=O)c1cc([C@@H]2CC[C@@H](c3cc(OC)c(OC)c(OC)c3)O2)cc(OCCN2CCOCC2)c1OCCCCCCO (relative stereo) [trans-2-[3-n-Propylsulfonyl-4-(6-hydroxy-n-hexyloxy)-5-{2-(1-morpholino)-ethoxy}phenyl]5-(3,4,5-trimethoxyphenyl)tetrahydrofuran]
60% | – | CCCS(=O)(=O)c1cc([C@@H]2CC[C@@H](c3cc(OC)c(OC)c(OC)c3)O2)cc(OC)c1OCCSc1ncc[nH]1 (relative stereo) [trans-2-[3-n-Propylsulfonyl-4-{2-(2-imidazolthio)ethoxy}-5-methoxyphenyl]-5-(3,4,5-trimethoxyphenyl) tetrahydrofuran]
23% | – | CCCS(=O)(=O)c1cc([C@@H]2CC[C@@H](c3cc(OC)c(OC)c(OC)c3)O2)cc(OC)c1OCCSc1nc[nH]n1 (relative stereo) [trans-2-[3-n-Propylsulfonyl-4-{2-(3-triazolthio)ethoxy}-5-methoxyphenyl]-5-(3,4,5-trimethoxyphenyl) tetrahydrofuran]
52% | – | CCCS(=O)(=O)c1cc([C@@H]2CC[C@@H](c3cc(OC)c(OC)c(OC)c3)O2)cc(OC)c1OCCSc1ccc(-c2nn[nH]n2)cc1 (relative stereo) [trans-2-[3-n-Propylsulfonyl-4-{2-(4-(2-tetrazo)phenylthio)ethoxy}-5-methoxyphenyl]-5-(3,4,5-trimethoxyphenyl)tetrahydrofuran]
60% | – | CCCS(=O)(=O)c1cc([C@H]2CC[C@H](c3cc(OC)c(OC)c(OC)c3)O2)cc(OC)c1OCCSc1ccc(C(=N)N)cc1 (relative stereo) [trans-2-[3-n-Propylsulfonyl-4-{2-(4-amidinophenylthio)ethoxy}-5-methoxyphenyl]-5-(3,4,5-trimethoxyphenyl)tetrahydrofuran]
93% | – | CCCS(=O)(=O)c1cc([C@H]2CC[C@H](c3cc(OC)c(OC)c(OC)c3)O2)cc(OC)c1OCCSc1ccc(C#N)cc1 (relative stereo) [trans-2-[3-n-Propylsulfonyl-4-{2-(4-cyanophenylthio)ethoxy}-5-methoxyphenyl]-5-(3,4,5-trimethoxyphenyl) tetrahydrofuran]
66% | – | CCCS(=O)(=O)c1cc([C@H]2CC[C@H](c3cc(OC)c(OC)c(OC)c3)O2)cc(OC)c1OCCSc1ccc(N(C)C)cc1 (relative stereo) [trans-2-[3-n-Propylsulfonyl-4-{2-(4-dimethylaminophenylthio)ethoxy}-5-methoxyphenyl]-5-(3,4,5-trimethoxyphenyl)tetrahydrofuran]
73% | – | CCCS(=O)(=O)c1cc([C@H]2CC[C@H](c3cc(OC)c(OC)c(OC)c3)O2)cc(OC)c1OCCSc1ccncc1 (relative stereo) [trans-2-[3-n-Propylsulfonyl-4-{2-(4-pyridylthio)ethoxy}-5-methoxyphenyl]-5-(3,4,5-trimethoxyphenyl) tetrahydrofuran]
73% | – | CCCS(=O)(=O)c1cc([C@@H]2CC[C@@H](c3cc(OC)c(OC)c(OC)c3)O2)cc(OC)c1OCCS(=O)(=O)c1ccccc1 (relative stereo) [trans-2-[3-n-Propylsulfonyl-4-{2-(Phenylsulfonyl)ethoxy}-5-methoxyphenyl]-5-(3,4,5-trimethoxyphenyl(tetrahydrofuran]
48% | – | CCCS(=O)(=O)c1cc([C@@H]2CC[C@@H](c3cc(OC)c(OC)c(OC)c3)O2)cc(OCCCN2CCOCC2)c1OCCCCCCO (relative stereo) [trans-2-]3-n-Propylsulfonyl-4-(6-hydroxyhexyloxy)-5-{3-(1-morpholino)n-propoxy}phenyl]-5-trimethoxyphenyl)tetrahydrofuran]
62% | – | CCCOc1c(OCCCc2cccnc2)cc([C@H]2CC[C@H](c3cc(OC)c(OC)c(OC)c3)O2)cc1S(=O)(=O)CC(C)=O (relative stereo) [trans-2-{3-(2-Oxopropylsulfonyl)-4-n-propoxy-5-[3-(3-pyridyl)propoxy}phenyl]-5-(3,4,5-trimethoxyphenyl) tetrahydrofuran]

Structure (SMILES) | inhibition at 0.003 µM | % Inhibition of the binding of [3H]N-methylcarbamoyl-PAF to human platelet membranes (0.003 µM)
CCCOc1c(OCCCCN2CCOCC2)cc([C@@H]2CC[C@@H](c3cc(OC)c(OC)c(OC)c3)O2)cc1S(=O)(=O)CC(C)=O (relative stereo) [trans-2-[3-(2-Oxopropylsulfonyl)-4-n-propoxy-5-{4-(1-morpholino)-n-butoxy}phenyl]-5-(3,4,5-trimethoxyphenyl)tetrahydrofuran] | 30% | –
CCCOc1c(OCCCCSc2ncc[nH]2)cc([C@H]2CC[C@H](c3cc(OC)c(OC)c(OC)c3)O2)cc1S(=O)(=O)CC(C)=O (relative stereo) [trans-2-[3-(2-Oxopropylsulfonyl)-4-n-propoxy-5-{4-(2-imidazolylthio)butoxy}phenyl]-5-(3,4,5-trimethoxyphenyl)tetrahydrofuran] | 60% | –
